Source: patent publication EP0454444A1, “Glutarimide derivatives and herbicides” (NISSAN CHEMICAL INDUSTRIES LTD., priority 1990, dated 1991)

Legend:
Test in all cases: Herbicidal effect test by soil treatment
Type in all cases: in vivo
[1] = system: wheat (Triticum aestivum); conditions: crop plant, three weeks after spraying
Summary of the method: (§1)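 Herbicide formulations, diluted with water, were applied across the soil surface right after sowing, with seeds lying roughly 1 cm deep in sterilized diluvial soil. Effects were judged at three weeks by comparing top fresh weights with untreated plants.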

[2] = system: barnyardgrass (Echinochloa crusgalli); conditions: three weeks after spraying
Summary of the method: as §1

[3] = system: cotton (Gossypium herbaceum); conditions: crop plant, three weeks after spraying
Summary of the method: as §1

[4] = system: hairly galinosoga (Galinsoga ciliat); conditions: three weeks after spraying
Summary of the method: as §1

[5] = system: rice (Oryza sativa); conditions: crop plant, three weeks after spraying
Summary of the method: as §1

[6] = system: rorippa ssp. (Rorippa atrovirens); conditions: three weeks after spraying
Summary of the method: as §1

[7] = system: annual sedge (Cyperus microiria); conditions: three weeks after spraying
Summary of the method: as §1

[8] = system: large crabgrass (Digitaria adscendens); conditions: three weeks after spraying
Summary of the method: as §1

[9] = system: black nightshade (Solanum nigrum L.); conditions: three weeks after spraying
Summary of the method: as §1

[10] = system: corn (Zea mays); conditions: crop plant, three weeks after spraying
Summary of the method: as §1

[11] = system: soybean (Glysine max); conditions: crop plant, three weeks after spraying
Summary of the method: as §1

SMILES: CC(C)OC(=O)c1cc(N2C(=O)CC(C(F)(F)F)C(C)C2=O)c(F)cc1Cl (stereo not drawn) [1-3]
- herbicidal effect, W (Triticum vulgare) ([1]; application amount 0.4 g/a): 2 (Growth control rates of 20 to 40%)
- herbicidal effect, W (Triticum vulgare) ([1]; application amount 0.8 g/a): 3 (Growth control rates of 40 to 70%)
- herbicidal effect, W (Triticum vulgare) ([1]; application amount 1.6 g/a): 5 (Growth control,rates of more than 90% (almost completely withered))
- herbicidal effect, N (Echinochloa crusgalli) ([2]; application amount 0.4 g/a): 5 (Growth control,rates of more than 90% (almost completely withered))
- herbicidal effect, N (Echinochloa crusgalli) ([2]; application amount 0.8 g/a): 5 (Growth control,rates of more than 90% (almost completely withered))
- herbicidal effect, N (Echinochloa crusgalli) ([2]; application amount 1.6 g/a): 5 (Growth control,rates of more than 90% (almost completely withered))
- herbicidal effect, C (Gossypium herbaceum) ([3]; application amount 0.4 g/a): 0 (Growth control rates of less than 5% (substantially no effect))
- herbicidal effect, C (Gossypium herbaceum) ([3]; application amount 0.8 g/a): 1 (Growth control rates of 5 to 20%)
- herbicidal effect, C (Gossypium herbaceum) ([3]; application amount 1.6 g/a): 3 (Growth control rates of 40 to 70%)
- herbicidal effect, D (Galinsoga ciliat) ([4]; application amount 0.4 g/a): 5 (Growth control,rates of more than 90% (almost completely withered))
- herbicidal effect, D (Galinsoga ciliat) ([4]; application amount 0.8 g/a): 5 (Growth control,rates of more than 90% (almost completely withered))
- herbicidal effect, D (Galinsoga ciliat) ([4]; application amount 1.6 g/a): 5 (Growth control,rates of more than 90% (almost completely withered))
- herbicidal effect, R (Oryza sativa) ([5]; application amount 0.4 g/a): 4 (Growth control rates of 70 to 90%)
- herbicidal effect, R (Oryza sativa) ([5]; application amount 0.8 g/a): 5 (Growth control,rates of more than 90% (almost completely withered))
- herbicidal effect, R (Oryza sativa) ([5]; application amount 1.6 g/a): 5 (Growth control,rates of more than 90% (almost completely withered))
- herbicidal effect, I (Rorippa indica) ([6]; application amount 0.4 g/a): 5 (Growth control,rates of more than 90% (almost completely withered))
- herbicidal effect, I (Rorippa indica) ([6]; application amount 0.8 g/a): 5 (Growth control,rates of more than 90% (almost completely withered))
- herbicidal effect, I (Rorippa indica) ([6]; application amount 1.6 g/a): 5 (Growth control,rates of more than 90% (almost completely withered))
- herbicidal effect, K (Cyperus microiria) ([7]; application amount 0.4 g/a): 5 (Growth control,rates of more than 90% (almost completely withered))
- herbicidal effect, K (Cyperus microiria) ([7]; application amount 0.8 g/a): 5 (Growth control,rates of more than 90% (almost completely withered))
- herbicidal effect, K (Cyperus microiria) ([7]; application amount 1.6 g/a): 5 (Growth control,rates of more than 90% (almost completely withered))
- herbicidal effect, M (Digitaria adscendens) ([8]; application amount 0.4 g/a): 5 (Growth control,rates of more than 90% (almost completely withered))
- herbicidal effect, M (Digitaria adscendens) ([8]; application amount 0.8 g/a): 5 (Growth control,rates of more than 90% (almost completely withered))
- herbicidal effect, M (Digitaria adscendens) ([8]; application amount 1.6 g/a): 5 (Growth control,rates of more than 90% (almost completely withered))
- herbicidal effect, H (Solanum nigrum L.) ([9]; application amount 0.4 g/a): 5 (Growth control,rates of more than 90% (almost completely withered))
- herbicidal effect, H (Solanum nigrum L.) ([9]; application amount 0.8 g/a): 5 (Growth control,rates of more than 90% (almost completely withered))
- herbicidal effect, H (Solanum nigrum L.) ([9]; application amount 1.6 g/a): 5 (Growth control,rates of more than 90% (almost completely withered))
- herbicidal effect, T (Zea mays) ([10]; application amount 0.4 g/a): 2 (Growth control rates of 20 to 40%)
- herbicidal effect, T (Zea mays) ([10]; application amount 0.8 g/a): 3 (Growth control rates of 40 to 70%)
- herbicidal effect, T (Zea mays) ([10]; application amount 1.6 g/a): 4 (Growth control rates of 70 to 90%)
- herbicidal effect, S (Glysine max) ([11]; application amount 0.4 g/a): 0 (Growth control rates of less than 5% (substantially no effect))
- herbicidal effect, S (Glysine max) ([11]; application amount 0.8 g/a): 0 (Growth control rates of less than 5% (substantially no effect))
- herbicidal effect, S (Glysine max) ([11]; application amount 1.6 g/a): 2 (Growth control rates of 20 to 40%)
